Measurements from the SangsterLogP compilation.

Experiment: method code SF-HPLC, from DOI: 10.1248/cpb.43.2238

| SMILES | logP |
| --- | --- |
| CNC(=O)c1ccsc1 | 0.81 |
| COC(=O)c1cccs1 | 1.83 |
| CCNC(=O)c1cccs1 | 1.18 |
| O=[N+]([O-])c1cccs1 | 1.58 |
| c1ccsc1 | 1.89 |
| CCCOC(=O)c1cccs1 | 3.01 |
| CCOC(=O)c1ccsc1 | 2.32 |
| CC(=O)c1ccsc1 | 1.26 |
| CNC(=O)c1cccs1 | 0.84 |
| CCCNC(=O)c1ccsc1 | 1.65 |
| CCCNC(=O)c1cccs1 | 1.68 |
| COc1cccs1 | 2.13 |
| CC(=O)c1cccs1 | 1.27 |
| N#Cc1cccs1 | 1.34 |
| CCNC(=O)c1ccsc1 | 1.18 |
| CCCOC(=O)c1ccsc1 | 3.03 |
| Clc1ccsc1 | 2.55 |
